Measured values taken from patent US9078874B2, “Composition and method for treating cognitive impairments in down syndrom subjects” (Centre National De La Recherche Scientifique—CNRS, priority 2009, dated 2015).
Read-outs that look alike come from different tables or passages of the source.

Assays:
euploid and Ts65Dn mice [1] = assay: Locomotor activity and anxiety in the open field; type: in vivo
Method: FIG. 7 depicts results from a locomotor activity and anxiety study of α5IA in Ts65Dn and euploid mice in the open field. Effects of α5IA (5 mg/kg) were evaluated on locomotion and anxiety in the open field.
Locomotor activity was evaluated in a total of 33 mice 30 min after i.p. injections (placebo: 8 euploid and 7 Ts65Dn mice; α5IA (5 mg/kg): 10 euploid and 8 Ts65Dn mice). Locomotion was measured in a square open field (50 cm×50 cm; luminosity: 30 lux) with black walls 30 cm high. Briefly, each animal was placed in the center of the arena and allowed to freely explore it for 10 min. Horizontal activity was monitored using the Any-Maze software. Time spent in the 10-cm wide peripheral zone and in the complementary 30 cm×30 cm central zone was recorded to evaluate anxiety.

rats [2] = conditions: 240 mg/kg for 5 weeks; cited from earlier work
euploid and Ts65Dn mice [3] = assay: Novel object recognition (NOR) task; type: in vivo
Method: The testing protocol is a variant of the testing method according to Fernandez et al. 2007. The Object recognition protocol used to study learning and memory was performed on a 10 minutes period between the first presentation of the objects and the change of one object. Euploid and Ts65Dn mice were tested with or without α5IA treatment. The apparatus consisted of a black square arena (50×50 cm) located in a room under weak controlled luminosity (4-6 Lux) and constant 60 dB white noise. The first day, all mice (16 euploid and 16 Ts65Dn mice) were handled by the experimenter in the animal facility 2×3 min to familiarize them with human contact. On day 2, mice were placed for 20 min in the empty arena for getting used to the apparatus and test room. On day 3, four identical objects were placed symmetrically in the corners of the arena, 14 cm from the side walls. […]
During all open field sessions, mice were monitored using a videotracking system (Any-Maze™). Object exploration was manually scored with an ethological keyboard and defined as the orientation of the nose to the object at a distance<6 cm. […]
For the retention phase, the percent of time exploring familiar vs. novel objects was calculated to assess memory performance (a score of 50% corresponding to equal exploration times of the two objects indicated no object memory). […]
Discrimination ratio was calculated using the formula: […]

[4] = mainly in urine and in feces; cited from earlier work
mice = assay: Anatomopathology after chronic treatment; type: in vivo; conditions: 5 mg/kg, 5 injections/week for 5 weeks
Method: FIG. 8 depicts results from a histological lesion study of α5IA after chronic treatment. Following chronic treatment with α5IA (5 mg/kg; 5 injections/week for 5 weeks), different organs were ablated and processed for routine histopathological examination. […] The same negative findings were observed following Periodic acid-Schiff staining of the tissues (not illustrated). […] The size and distribution of urine crystals (not illustrated) appeared to be very similar in the different groups. The scale bar represents 100 μm.
Mice treated for 2 weeks with α5IA and tested in the elevated plus maze were further treated for another 3 weeks. On the last day of treatment, urine samples were collected 2 hours after α5IA or placebo i.p. administration. Urine was stored at −20° C. before analysis. The day after, mice were injected i.p. with an overdose of sodium pentobarbital. Deeply anaesthetized mice received a PBS flush by means of an intracardiac perfusion. For anatomo-pathological examination, 3 additional euploid non-injected mice were also sacrificed. Liver, kidney, brain and spleen were dissected and fixed in a 10% formalin solution. Tissues were then paraffin-embedded and cut using a microtome (5 μm thick sections) before being processed for routine histopathological evaluation (hematein-eosin and Periodic acid-Schiff stainings).

euploid and Ts65Dn mice [5] = assay: Anxiety-related behavior in the elevated plus maze; type: in vivo; conditions: for Time spent in the open arms of the elevated plus-maze: acute, one single 15 mg/kg i.p. injection
Method: FIG. 6 depicts results from an anxiety-related behavior study of α5IA. Anxiety was assessed in the elevated plus maze, in both euploid and Ts65Dn mice under placebo or α5IA. Time spent in the open arms of the elevated plus-maze was taken as a measure of anxiety levels.
Modulation of anxiety-related behaviors by α5IA was more precisely assessed using an elevated-plus maze, in a total of 42 mice, 30 min after i.p. injections (placebo: 11 euploid and 7 Ts65Dn mice; α5IA (15 mg/kg): 14 euploid and 10 Ts65Dn mice). The maze was constructed of black perspex (length, 28 cm; width, 5 cm; height from floor, 40 cm; overall luminosity in open arms: 70 1×) with two opposing open arms, and two enclosed arms equipped with three 16 cm high walls. Mice were placed in the central region of the maze and behavior was recorded for a 5 min period using the Any. Maze software that automatically calculates the time spent in the different parts of the maze (e.g., open and enclosed arms).
To explore the potential adversity of chronic injections of α5IA (5 mg/kg), another group of euploid mice was treated for two weeks (5 injections/week; 5 α5IA treated mice; 5 placebo-treated mice). After repeated treatment, these mice were evaluated in the elevated plus maze as described above.

rats [6] = conditions: cited from earlier work
receptor = conditions: rats, 3 mg/kg, cited from earlier work
mouse hippocampal slice = conditions: cited from earlier work

Cc1cc(-c2nnc3c4ccccc4c(OCc4cn(C)nn4)nn23)no1 [α5IA, 3-(5-methylisoxazol-3-yl)-6-[(1-methyl-1,2,3-triazol-4-yl)methyloxy]-1,2,4-triazolo[3,4-a]phthalazine]
locomotor activity and anxiety (periphery-to-center exploration ratio) in the open field (euploid and Ts65Dn mice [1]; 5 mg/kg, Ts65Dn and euploid mice): did not alter locomotor activity and anxiety | horizontal activity (traveled distances) (euploid and Ts65Dn mice [1]; single injection 5 mg/kg, euploid and Ts65Dn mice): did not modify the gross locomotor activity | renal toxicity (rats [2]): renal pyelitis and papillitis associated with crystals formation | object recognition performance compared to wild-type mice receiving a placebo (euploid and Ts65Dn mice [3]; Ts65Dn mice): above-normal object recognition performance | recognition performance (euploid and Ts65Dn mice [3]; i.p. 5 mg/kg, 30 min before acquisition, both euploid and Ts65Dn mice): largely improved their recognition performance | metabolism [4]: exclusively metabolized into the hydroxymethyl isoxazol metabolite M1 | abnormal crystals in brain, hepatic and renal tissues under polarized light (mice): lack of abnormal crystals | histological lesions (mice; liver, kidney, brain): did not induce any histological lesions | Time spent in the open arms of the elevated plus-maze (euploid and Ts65Dn mice [5]; Ts65Dn mice, p<0.05): significantly reduced the time spent in open arms | Time spent in the open arms of the elevated plus-maze (euploid and Ts65Dn mice [5]; euploid mice): did not modify the behavior | anxiety levels in the elevated plus maze (euploid and Ts65Dn mice [5]; semi-chronic, 5 mg/kg 5 times a week for 2 weeks, euploid mice, p>0.73): did not alter the anxiety levels | cognitive performance in variant of the Morris water maze task (rats [6]; rat, in vivo): enhance cognitive performance | effective promnesiant dose in the MWM test (rats [6]; rats): 3 mg/kg | receptor occupancy (receptor; after 2 h): 80% | receptor occupancy (receptor; after 8 h): 60% | long-term potentiation (mouse hippocampal slice): enhance long-term potentiation
